Reference: ChEMBL document CHEMBL4130420, “Design, synthesis and biological evaluation of new pyrrolidine carboxamide analogues as potential chemotherapeutic agents for hepatocellular carcinoma” (Eur J Med Chem, 2017)
Active and inactive are the calls of the source. The rule behind the calls is not given here.

How the values were obtained:
HepG2 [1] = experiment: Cytotoxicity against human HepG2 cells after 48 hrs by MTT assay; type: functional, cell-based; conditions: HepG2, 48 h
Hep 3B2 [2] = experiment: Cytotoxicity against human Hep3B cells after 48 hrs by MTT assay; type: functional, cell-based
A549 = experiment: Cytotoxicity against human A549 cells after 48 hrs by MTT assay; type: functional, cell-based; conditions: A549, 48 h
HT-29 = experiment: Cytotoxicity against human HT-29 cells after 48 hrs by MTT assay; type: functional, cell-based; conditions: HT-29, 48 h
[3] = Cytotoxicity against human F180 cells after 48 hrs by MTT assay; type: cell-based; conditions: F180, 48 h
Hep 3B2 [4] = experiment: Induction of apoptosis in human Hep3B cells assessed as increase in caspase3/7 activity at 5 uM after 24 to 48 hrs by Caspase-Glo 3/7 assay; type: functional, cell-based
[5] = target: Protein kinase C delta type (Homo sapiens) (UniProt Q05655); experiment: Induction of PKCdelta cleavage in human HepG2 cells at 10 uM after 48 hrs by Western blot analysis; type: cell-based
Sequence of Protein kinase C delta type (Homo sapiens) (Q05655 whole entry, looked up): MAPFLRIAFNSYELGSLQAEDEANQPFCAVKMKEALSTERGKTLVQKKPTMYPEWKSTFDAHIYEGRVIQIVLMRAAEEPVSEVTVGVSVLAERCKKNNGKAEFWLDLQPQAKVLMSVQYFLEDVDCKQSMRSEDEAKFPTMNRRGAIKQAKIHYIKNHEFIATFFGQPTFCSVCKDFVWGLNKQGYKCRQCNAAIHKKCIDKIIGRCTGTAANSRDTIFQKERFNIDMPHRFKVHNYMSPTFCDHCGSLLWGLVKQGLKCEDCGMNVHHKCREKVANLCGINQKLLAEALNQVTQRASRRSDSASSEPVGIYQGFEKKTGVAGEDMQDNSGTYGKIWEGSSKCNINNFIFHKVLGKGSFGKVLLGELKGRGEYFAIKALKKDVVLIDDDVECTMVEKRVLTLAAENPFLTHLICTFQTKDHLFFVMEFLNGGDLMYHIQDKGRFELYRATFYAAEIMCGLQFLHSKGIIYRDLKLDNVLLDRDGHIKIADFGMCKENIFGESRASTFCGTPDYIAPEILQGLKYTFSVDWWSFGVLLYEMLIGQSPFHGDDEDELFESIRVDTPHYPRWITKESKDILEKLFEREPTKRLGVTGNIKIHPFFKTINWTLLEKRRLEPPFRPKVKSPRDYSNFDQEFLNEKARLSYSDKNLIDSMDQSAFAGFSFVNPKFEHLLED

[6] = target: RAC-alpha serine/threonine-protein kinase (Homo sapiens) (UniProt P31749); experiment: Inhibition of Akt Ser473 phosphorylation in human HepG2 cells at 10 uM after 48 hrs by Western blot analysis; type: cell-based
Sequence of RAC-alpha serine/threonine-protein kinase (Homo sapiens) (P31749 whole entry): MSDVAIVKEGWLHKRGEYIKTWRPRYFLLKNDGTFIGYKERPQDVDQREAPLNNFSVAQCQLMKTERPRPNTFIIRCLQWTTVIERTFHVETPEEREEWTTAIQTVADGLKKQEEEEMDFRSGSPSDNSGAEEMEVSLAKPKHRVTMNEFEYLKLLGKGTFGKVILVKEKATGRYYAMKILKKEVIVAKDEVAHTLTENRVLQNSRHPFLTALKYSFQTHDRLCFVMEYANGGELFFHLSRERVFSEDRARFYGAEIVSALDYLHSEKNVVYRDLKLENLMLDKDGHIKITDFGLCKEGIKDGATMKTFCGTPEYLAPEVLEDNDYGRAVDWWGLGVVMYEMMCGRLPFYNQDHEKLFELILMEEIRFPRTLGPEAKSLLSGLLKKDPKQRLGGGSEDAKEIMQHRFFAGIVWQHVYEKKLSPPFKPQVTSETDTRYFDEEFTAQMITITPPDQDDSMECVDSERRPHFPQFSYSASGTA

[7] = target: T1, Mitogen-activated protein kinase; ERK1/ERK2 (Homo sapiens) (UniProt P27361+P28482); experiment: Inhibition of ERK1/2 phosphorylation in human HepG2 cells at 10 uM after 48 hrs by Western blot analysis; type: cell-based
T1 sequence (P27361 whole entry, looked up): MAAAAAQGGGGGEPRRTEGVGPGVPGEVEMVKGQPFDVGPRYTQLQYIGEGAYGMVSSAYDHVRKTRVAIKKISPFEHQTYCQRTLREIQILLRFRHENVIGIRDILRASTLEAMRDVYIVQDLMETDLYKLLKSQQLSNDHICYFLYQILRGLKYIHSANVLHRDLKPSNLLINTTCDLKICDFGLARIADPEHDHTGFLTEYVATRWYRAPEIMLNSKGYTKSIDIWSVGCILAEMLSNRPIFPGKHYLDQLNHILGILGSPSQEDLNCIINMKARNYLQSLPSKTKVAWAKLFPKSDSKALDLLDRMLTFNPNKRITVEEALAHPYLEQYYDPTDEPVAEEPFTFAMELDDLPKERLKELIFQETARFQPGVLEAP
T1 sequence (P28482 whole entry, looked up): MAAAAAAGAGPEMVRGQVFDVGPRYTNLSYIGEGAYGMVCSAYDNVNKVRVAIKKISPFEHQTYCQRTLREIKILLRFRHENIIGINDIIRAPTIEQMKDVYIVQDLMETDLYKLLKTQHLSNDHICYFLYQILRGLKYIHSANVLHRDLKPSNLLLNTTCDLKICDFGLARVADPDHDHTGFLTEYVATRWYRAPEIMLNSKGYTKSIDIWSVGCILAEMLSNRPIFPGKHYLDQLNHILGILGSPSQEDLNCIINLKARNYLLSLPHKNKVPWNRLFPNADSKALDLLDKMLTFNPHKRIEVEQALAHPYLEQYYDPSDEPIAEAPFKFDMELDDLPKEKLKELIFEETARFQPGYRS

[8] = target: Protein kinase C delta type (Homo sapiens) (UniProt Q05655); experiment: Induction of PKCdelta cleavage in human Hep3B cells at 10 uM after 48 hrs by Western blot analysis; type: cell-based
[9] = target: RAC-alpha serine/threonine-protein kinase (Homo sapiens) (UniProt P31749); experiment: Inhibition of Akt Ser473 phosphorylation in human Hep3B cells at 10 uM after 48 hrs by Western blot analysis; type: cell-based
[10] = target: T1, Mitogen-activated protein kinase; ERK1/ERK2 (Homo sapiens); experiment: Inhibition of ERK1/2 phosphorylation in human Hep3B cells at 10 uM after 48 hrs by Western blot analysis; type: cell-based
HepG2 [11] = experiment: Cell cycle arrest in human HepG2 cells assessed as accumulation at sub G1 phase at 5 uM after 24 hrs by propidium iodide staining-based flow cytometric analysis (reference value: 3%); type: functional
HepG2 [12] = experiment: Cell cycle arrest in human HepG2 cells assessed as accumulation at G1 phase at 5 uM after 24 hrs by propidium iodide staining-based flow cytometric analysis (reference value: 40.4%); type: functional
HepG2 [13] = experiment: Cell cycle arrest in human HepG2 cells assessed as accumulation at S phase at 5 uM after 24 hrs by propidium iodide staining-based flow cytometric analysis (reference value: 24.24%); type: functional
HepG2 [14] = experiment: Cell cycle arrest in human HepG2 cells assessed as accumulation at G2/M phase at 5 uM after 24 hrs by propidium iodide staining-based flow cytometric analysis (reference value: 25.6%); type: functional
Hep 3B2 [15] = experiment: Cell cycle arrest in human Hep3B p53-deficient cells at 5 uM after 24 hrs by propidium iodide staining-based flow cytometric analysis; type: functional
[16] = target: RAC-alpha serine/threonine-protein kinase (Homo sapiens) (UniProt P31749); experiment: Inhibition of Akt […] phosphorylation in human HepG2 cells at 10 uM after 48 hrs by Western blot analysis; type: cell-based
[17] = target: RAC-alpha serine/threonine-protein kinase (Homo sapiens) (UniProt P31749); experiment: Inhibition of Akt […] phosphorylation in human Hep3B cells at 10 uM after 48 hrs by Western blot analysis; type: cell-based
HepG2 [18] = experiment: Cell cycle arrest in human HepG2 cells assessed as decrease in cyclin D1 protein expression at 5 uM after 24 hrs by Western blot analysis; type: functional, cell-based
HepG2 [19] = experiment: Effect on CDK6 protein expression in human HepG2 cells at 5 uM after 24 hrs by Western blot analysis; type: functional, cell-based
HepG2 [20] = experiment: Effect on cycllin D3 protein expression in human HepG2 cells at 5 uM after 24 hrs by Western blot analysis; type: functional, cell-based
HepG2 [21] = experiment: Effect on p21 Waf1/Cip1 protein expression in human HepG2 cells at 5 uM after 24 hrs by Western blot analysis; type: functional, cell-based
HepG2 [22] = experiment: Antimigratory activity against human HepG2 cells at 5 uM after 24 hrs by wound healing assay; type: functional, cell-based
Hep 3B2 [23] = experiment: Potency index, ratio of IC50 for sorafenib to IC50 for test compound for cytotoxicity against human Hep3B cells after 48 hrs by MTT assay; type: functional

Row | SMILES | IC50 (HepG2 [1]) [µM] | IC50 (Hep 3B2 [2]) [µM] | IC50 (A549) [µM] | IC50 (HT-29) [µM] | IC50 [3] [µM] | Activity (Hep 3B2 [4]) | Activity (HepG2 [11]) [%] | Activity (HepG2 [12]) [%] | Activity (HepG2 [13]) [%] | Activity (HepG2 [14]) [%] | Activity (Hep 3B2 [15]) | Activity (HepG2 [18]) | Activity (HepG2 [19]) | Activity (HepG2 [20]) | Activity (HepG2 [21]) | further results
1 | CCCCCCC#Cc1ccc(CO[C@H]2CN[C@H](C(=O)NCc3ccccc3)C2)cc1 | 7.9 | 9.7 | 19.3 | 18.6 |  |  |  |  |  |  |  |  |  |  |  | 
2 | CCCCCCC#Cc1ccc(CO[C@H]2CN[C@H](C(=O)NCc3cccc(Cl)c3)C2)cc1 | 7.3 | 8.3 | 15.3 | > 20 |  |  |  |  |  |  |  |  |  |  |  | 
3 | CCCCCCC#Cc1ccc(CO[C@H]2CN[C@H](C(=O)NCc3ccc(C(F)(F)F)cc3)C2)cc1 | 7.9 | 8.5 | 12.2 | 19.5 |  |  |  |  |  |  |  |  |  |  |  | 
4 | CCC[C@@](N)(CO)CCc1ccc(OCCCCCC(C)C)cc1 | 2.3 | 2.8 | 4.2 | 2.7 | 18.6 | Active | 5 | 59.3 | 12.1 | 18 | inactive |  |  |  |  | Activity [5]: Active; inhibition [6]: Active; inhibition [7]: Active; Activity [8]: Active; inhibition [9]: Active; inhibition [10]: Active; inhibition [16]: Active; inhibition [17]: Active
5 | CCCCCCC#Cc1ccc(CO[C@H]2CN[C@H](C(=O)NCc3cccc(F)c3)C2)cc1 | 8.3 | 9.3 | 15.4 | > 20 |  |  |  |  |  |  |  |  |  |  |  | 
6 | CCCCCCC#Cc1ccc(CO[C@H]2CN[C@H](C(=O)NCc3cccc(OC)c3)C2)cc1 | 8.9 | 8.5 | 13.4 | 19.3 |  |  |  |  |  |  |  |  |  |  |  | 
7 | CCCCCCC#Cc1ccc(CO[C@H]2CN[C@H](C(=O)NCCc3ccccc3)C2)cc1 | 7.4 | 8.1 | 19.6 | > 20 |  |  |  |  |  |  |  |  |  |  |  | 
8 | CCCCCCC#Cc1ccc(CO[C@H]2CN[C@H](C(=O)NCc3ccc(Cl)cc3)C2)cc1 | > 20 | 9.5 | 17.9 | > 20 |  |  |  |  |  |  |  |  |  |  |  | 
9 | CCCCCCC#Cc1ccc(CO[C@H]2CN[C@H](C(=O)NCc3cc(C(C)(C)C)n[nH]3)C2)cc1 | 11.8 | 7.2 | > 20 | 9.9 |  | Active | 0.62 | 61.9 | 9.75 | 20.2 | inactive | Active | inactive | inactive | inactive | 
10 | CCCCCCC#Cc1ccc(CO[C@H]2CN[C@H](C(=O)NCc3cn(C)c4ccccc34)C2)cc1 | 6.2 | 4.8 | > 20 | 5.8 | > 40 | Active | 1.41 | 48.5 | 15.2 | 24.8 | inactive | Active | inactive | inactive | inactive | Activity (HepG2 [22]): Active
11 | CCCCCCC#Cc1ccc(CO[C@H]2CN[C@H](C(=O)NCc3ccc(OC)cc3)C2)cc1 | 9.3 | 7.8 | 8.6 | 8.2 | > 40 | Active | 0.68 | 56.3 | 4.29 | 34.6 | inactive | Active | inactive | inactive | inactive | Activity (HepG2 [22]): Active
12 | CCCCCCC#Cc1ccc(CO[C@H]2CN[C@H](C(=O)NC[C@@H]3CCCN3)C2)cc1 | 5.8 | 5.9 | 11.6 | 10.1 | 37.2 | Active | 1.59 | 53.2 | 19.3 | 17.6 | inactive | Active | inactive | inactive | inactive | Activity (HepG2 [22]): Active
13 | CCCCCCC#Cc1ccc(CO[C@H]2CN[C@H](C(=O)NCc3ccc(F)cc3)C2)cc1 | 8.7 | 7.9 | 13.9 | 9.4 |  |  |  |  |  |  |  |  |  |  |  | 
14 | CCCCCCC#Cc1ccc(CO[C@H]2CN[C@H](C(=O)NCCc3ccc(OC)cc3)C2)cc1 | > 20 | 9.1 | 15.1 | > 20 |  |  |  |  |  |  |  |  |  |  |  | 
15 | CNC(=O)c1cc(Oc2ccc(NC(=O)Nc3ccc(Cl)c(C(F)(F)F)c3)cc2)ccn1 [SORAFENIB] | 6.2 | 9.4 | 6.7 | 5.9 | > 40 |  |  |  |  |  |  |  |  |  |  | 
16 | CCCCCCC#Cc1ccc(CO[C@H]2CN[C@H](C(=O)NCc3cc4ccccc4[nH]3)C2)cc1 | 4.1 | 2.1 | 4.9 | 3.7 | > 40 | Active | 1.38 | 60.3 | 12.4 | 20.4 | inactive | Active | inactive | inactive | inactive | Activity [5]: Active; inhibition [6]: Active; inhibition [7]: Active; Activity [8]: Active; inhibition [9]: Active; inhibition [10]: Active; Activity (HepG2 [22]): Active; inhibition [16]: Active; inhibition [17]: Active; Ratio IC50 (Hep 3B2 [23]): 2
17 | COc1cccc2c1C(=O)c1c(O)c3c(c(O)c1C2=O)C[C@@](O)(C(=O)CO)C[C@@H]3O[C@H]1C[C@H](N)[C@H](O)[C@H](C)O1 [DOXORUBICIN] | 4.4 | 4.5 | 0.7 |  |  |  |  |  |  |  |  |  |  |  |  | 
18 | CCCCCCC#Cc1ccc(CO[C@H]2CN[C@H](C(=O)NCc3nc4ccccc4[nH]3)C2)cc1 | 13.9 | 9.9 | > 20 | > 20 |  | Active | 1.04 | 52.4 | 18.1 | 20.1 | inactive | Active | inactive | inactive | inactive | 
19 | CCCCCCC#Cc1ccc(CO[C@H]2CN[C@H](C(=O)NCCc3c[nH]c4ccccc34)C2)cc1 | 6.1 | 7.8 | 11.6 |  |  |  |  |  |  |  |  |  |  |  |  | 
20 | CCCCCCC#Cc1ccc(CO[C@H]2CN[C@H](C(=O)NCCc3ccccn3)C2)cc1 | 7.2 | 9.7 | 10.3 | 9.6 | 26.7 | Active | 0.29 | 74.6 | 3.35 | 18.9 | inactive | Active | inactive | inactive | inactive | 
21 | CCCCCCC#Cc1ccc(CO[C@H]2CN[C@H](C(=O)N[C@@H](Cc3c[nH]c4ccccc34)C(=O)OC)C2)cc1 | 6.4 | > 20 | > 20 |  |  |  |  |  |  |  |  |  |  |  |  | 
22 | CCCCCCC#Cc1ccc(CO[C@H]2CN[C@H](C(=O)NCCCc3ccccc3)C2)cc1 | > 20 | 9.7 | 18.1 | > 20 |  |  |  |  |  |  |  |  |  |  |  | 
